Values joined by “and” are separate entries in the source; they are usually repeats but may differ in a detail not shown here. Equal entries are not always repeated.

The subject of data set [1] is PBC patients. The arrangement: method as in PMID 25500425. As to conditions: cited from earlier work.
Data set [2] deals with animal models of non-obstructive cholestasis. The arrangement: method as in PMID 26177448. The settings on record: cited from earlier work.
Data set [3] addresses T1, FXR (Homo sapiens, UniProt Q96RI1).
T1 sequence (Q96RI1 1-486): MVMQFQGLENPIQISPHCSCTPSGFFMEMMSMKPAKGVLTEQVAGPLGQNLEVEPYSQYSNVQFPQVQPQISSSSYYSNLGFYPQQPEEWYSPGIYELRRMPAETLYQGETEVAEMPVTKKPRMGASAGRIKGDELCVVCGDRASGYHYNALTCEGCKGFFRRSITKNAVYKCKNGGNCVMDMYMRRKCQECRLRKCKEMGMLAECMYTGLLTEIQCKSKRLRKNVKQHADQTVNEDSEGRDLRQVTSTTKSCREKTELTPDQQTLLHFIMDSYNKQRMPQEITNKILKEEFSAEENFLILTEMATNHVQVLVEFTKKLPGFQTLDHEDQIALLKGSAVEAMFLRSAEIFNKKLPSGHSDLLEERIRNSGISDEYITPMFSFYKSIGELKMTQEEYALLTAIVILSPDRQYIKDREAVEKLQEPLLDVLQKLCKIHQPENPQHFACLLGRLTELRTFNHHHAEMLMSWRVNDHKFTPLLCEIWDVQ
T1 sequence (P19793 1-462 partner): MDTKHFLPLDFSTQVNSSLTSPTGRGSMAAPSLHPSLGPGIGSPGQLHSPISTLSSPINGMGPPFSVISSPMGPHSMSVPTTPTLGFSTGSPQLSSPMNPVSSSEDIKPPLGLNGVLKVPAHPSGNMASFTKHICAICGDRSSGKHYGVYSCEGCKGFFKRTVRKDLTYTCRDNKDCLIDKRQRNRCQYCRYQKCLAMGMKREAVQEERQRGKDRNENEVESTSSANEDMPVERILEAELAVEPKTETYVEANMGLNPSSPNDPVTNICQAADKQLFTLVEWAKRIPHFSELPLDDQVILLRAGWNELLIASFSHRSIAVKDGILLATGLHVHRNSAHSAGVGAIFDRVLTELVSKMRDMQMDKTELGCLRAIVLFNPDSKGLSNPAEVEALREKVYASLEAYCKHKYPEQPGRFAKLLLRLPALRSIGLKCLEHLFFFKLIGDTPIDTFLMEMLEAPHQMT
The arrangement: method as in PMID 25247751. The settings on record: any concentration tested; cited from earlier work.

The test system of data set [4] is rodent models of portal hypertension. The arrangement: method as in PMID 26539823. The settings on record: cited from earlier work.
Data set [5] relates to GPBAR1. Further details: method as in PMID 25247751. The settings on record: cited from earlier work.
Data set [6] addresses T2, GST-fusion FXR-LBD / SRC-1 peptide (Homo sapiens, UniProt Q96RI1).
T2 construct: 10 nM of purified GST-tagged FXR-LBD protein
T2 sequence (Q96RI1 262-486 limits assumed): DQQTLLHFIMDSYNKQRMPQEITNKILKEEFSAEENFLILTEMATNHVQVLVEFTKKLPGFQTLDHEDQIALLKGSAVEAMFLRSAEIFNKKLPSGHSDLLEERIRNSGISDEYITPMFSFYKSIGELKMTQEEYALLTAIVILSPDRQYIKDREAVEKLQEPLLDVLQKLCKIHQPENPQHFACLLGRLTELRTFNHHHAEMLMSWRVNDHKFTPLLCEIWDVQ
T2 sequence (Q15788 676-700 partner limits assumed): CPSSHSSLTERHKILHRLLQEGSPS
In words: Alpha screen coactivator recruitment assay, direct interaction of FXR with SRC-1. The class given is biochemical. As to conditions: ligands at 2 μM, effect of 6-ECDCA (3) settled as 100%. The method, then:
CDCA (1) and 6-ECDCA (3) were used as positive controls at 2 μM concentration and the effect of 6-ECDCA (3) was settled as 100%. […] Results are expressed as percentage of the effect of 3 arbitrarily settled as 100%. NT is referred to the experiment in absence of ligand. […] (B,C) Real-time PCR analysis of mRNA expression on FXR target genes BSEP (B), and OSTα (C) in HepG2 cells primed with 10 μM of compound 19. CDCA (1) was used as a positive control at 10 μM. (D) Real-time PCR analysis of mRNA expression of GPBAR1 target gene Pro-glucagon in GLUTAg cells stimulated with 10 μM of compounds 7 and 19, and TLCA (2) used as a positive control at 10 μM. Values are normalized to GAPDH and are expressed relative to those of not treated cells (NT) which are arbitrarily settled to 1. The relative mRNA expression is expressed as 2(-ΔΔCt). Anti-GST-coated acceptor beads were used to capture the GST-fusion FXR-LBD whereas the biotinylated-SRC-1 peptide was captured by the streptavidin donor beads. Upon illumination at 680 nm, chemical energy is transferred from donor to acceptor beads across the complex streptavidin-Donor/Src-1-Biotin/[…]-LBD/Anti-GST-Acceptor and a signal is produced. The assay was performed in white, low-volume, 384-well Optiplates (PerkinElmer) using a final volume of 25 μL containing final concentrations of 10 nM of purified GST-tagged FXR-LBD protein, 30 nM biotinylated Src-1 peptide, 20 μg/mL anti-GST acceptor beads acceptor beads and 10 μg/mL of streptavidin donor bead (PerkinElmer). The assay buffer contained 50 mM Tris (pH 7.4), 50 mM KCl, 0.1% BSA, and 1 mM DTT. The stimulation times with 1 μL of tested compound (dissolved in 50% DMSO/H2O) were fixed to 30 min at room temperature. The concentration of DMSO in each well was maintained at a final concentration of […]. After the addition of the detection mix (acceptor and donor beads) the plates were incubated in the dark for 4 h at room temperature and then were read in Envision microplate analyzer (PerkinElmer).

Data set [7] addresses T3, human GPBAR1 (Homo sapiens, UniProt Q8TDU6).
T3 construct: expressed in transfected cells; host or cells: HEK-293T
T3 sequence (Q8TDU6 1-330): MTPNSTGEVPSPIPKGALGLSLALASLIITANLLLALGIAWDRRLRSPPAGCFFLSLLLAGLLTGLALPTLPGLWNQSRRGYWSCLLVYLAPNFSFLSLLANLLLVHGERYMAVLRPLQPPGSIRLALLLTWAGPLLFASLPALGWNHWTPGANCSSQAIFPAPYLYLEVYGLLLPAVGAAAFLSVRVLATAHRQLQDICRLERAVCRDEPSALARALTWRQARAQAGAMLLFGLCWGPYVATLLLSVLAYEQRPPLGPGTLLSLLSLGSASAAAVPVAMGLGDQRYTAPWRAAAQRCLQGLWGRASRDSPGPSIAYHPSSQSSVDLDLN
In words: GPBAR1 transactivation (cAMP responsive element luciferase reporter) in transfected HEK-293T cells. Type of data set: cell-based. As to conditions: for EC50: HEK-293T cells transfected with GPBAR1, concentration-response, mean ± standard error. The text has this: Luciferase activities were normalized with Renilla activities.
Background: A reporter such as luciferase makes a cellular process visible.

The subject of data set [8] is GPBAR1 target gene Pro-glucagon in GLUTAg cells. In words: Real-time PCR of GPBAR1 target gene Pro-glucagon in GLUTAg cells. Type of data set: cell-based, mouse. The settings on record: 10 μM, relative to not treated cells. The method, then:
(§1) Figure 10 (A) Coactivator recruitment assay measuring a direct interaction of FXR with SRC-1; ligands at 2 μM. Results are expressed as percentage of the effect of 3 arbitrarily settled as 100%. NT is referred to the experiment in absence of ligand. […] (B,C) Real-time PCR analysis of mRNA expression on FXR target genes BSEP (B), and OSTα (C) in HepG2 cells primed with 10 μM of compound 19. CDCA (1) was used as a positive control at 10 μM. (D) Real-time PCR analysis of mRNA expression of GPBAR1 target gene Pro-glucagon in GLUTAg cells stimulated with 10 μM of compounds 7 and 19, and TLCA (2) used as a positive control at 10 μM. Values are normalized to GAPDH and are expressed relative to those of not treated cells (NT) which are arbitrarily settled to 1. The relative mRNA expression is expressed as 2(−ΔΔCt).
(§2) Total RNA was isolated from HepG2 or GLUTAg cells using the TRIzol reagent according to the manufacturer’s specifications (Invitrogen). One microgram of purified RNA was treated with DNase-I and reverse transcribed with Superscript II (Invitrogen). For Real Time PCR, 10 ng template was dissolved in 25 μL containing 200 nmol/L of each primer and 12.5 μL of 2 × SYBR FAST Universal ready mix (Invitrogen). […] The relative mRNA expression was calculated and expressed as 2-(ΔΔCt). […]

In data set [9] the target is T1, FXR. In words: FXR transactivation luciferase reporter assay in transfected HepG2 cells. The settings on record: HepG2 cells transfected with FXR; for EC50: EC50 FXR transactivation, 100 nM to 25 μM, mean ± standard error.
Description: (A) HepG2 cells were transfected with pSG5-FXR, pSG5-RXR, pCMV-βgal, and p(hsp27)TKLUC vectors. […] CDCA (1, 10 μM) and 6-ECDCA (3, 1 μM) were used as a positive control. […] Cells were stimulated with 7–19 (10 μM). […] In both panels, results are expressed as mean ± standard error. *p < 0.05 versus not treated cells (NT).
HepG2 cells were transfected with FXR as described above and used in a luciferase reporter assay. […] Results are expressed as mean ± standard error.
For FXR and GP BAR1 mediated transactivations, HepG2 cells and HEK293T cells were transfected as described previously[25]. […] After treatments, 20 μL of cellular lysates were read using Dual Luciferase Reporter Assay System (Promega Italia s.r.l., Milan, Italy) according manufacturer specifications using the Glomax 20/20 luminometer (Promega Italia s.r.l., Milan, Italy). […] At 18 h post stimulations, cellular lysates were assayed for luciferase and Renilla activities using the Dual-Luciferase Reporter assay system (E1980, Promega). Luminescence was measured using Glomax 20/20 luminometer (Promega). Luciferase activities were normalized with Renilla activities.
The test system of data set [10] is FXR target genes BSEP and OSTα in HepG2 cells. In words: Real-time PCR of FXR target genes BSEP and OSTα in HepG2 cells. Type of data set: cell-based, human. The settings on record: 10 μM, relative to not treated cells. The method, then:
as §1, §2
In general terms: Quantitative PCR measures a nucleic acid by following its amplification.

For the compound `CC[C@H]1[C@@H](O)[C@@H]2[C@H](CC[C@]3(C)[C@@H]([C@H](C)CCC(=O)O)CC[C@@H]23)[C@@]2(C)CC[C@@H](O)C[C@@H]12` [6-ECDCA/OCA, 6-ECDCA], the “Patients who experienced the symptoms (pruritus)” value in data set [1] is given as “approx. 80%”. Besides, the “PBC patients who halted the treatment due to the severity of itching” value in data set [1] (one trial) is reported as “up to 40%”.
For `CC[C@H]1[C@@H](O)[C@@H]2[C@H](CC[C@]3(C)[C@@H]([C@H](C)CCO)CC[C@@H]23)[C@@]2(C)CC[C@@H](O)C[C@@H]12` [compound 5], the “Liver damage and itching” value in [2] is “attenuates liver damage in animal models of non-obstructive cholestasis without inducing itching”.
In general, EC50 refers to the concentration needed to bring the measured effect to its halfway point. Turning to `CC[C@@H]1[C@H](O)[C@@H]2[C@H](CC[C@]3(C)[C@@H]([C@H](C)CCCO)CC[C@@H]23)[C@@]2(C)CC[C@@H](O)C[C@@H]12` [compound 6, EUDCOH], in [3], the FXR transactivation entry is “failing in transactivating FXR at any concentration tested”. For the same compound, the Portal pressure entry in [4] is reported as “exerts portal pressure-lowering effects”. Also, the EC50 in [5] was 1.03 µM.
In the case of `CCC1C(O)C2C3CCC(C(C)CCO)C3(C)CCC2C2(C)CCC(O)CC12` (stereo not drawn) [compound 7], the “Recruitment of SRC-1 co-activator to FXR” value in data set [6] is “completely unable to recruit SRC-1”. Also, the “GPBAR1 potency compared with TLCA (2)” value in [7] (HEK-293T cells transfected with GPBAR1, 10 μM) is recorded as “potency similar to that of TLCA”. For the same compound, the “GPBAR1 transactivation (cAMP-luciferase reporter gene)” value in [7] (HEK-293T cells transfected with GPBAR1, compounds at 10 μM) was “inducers of cAMP-luciferase reporter gene”. In [7], this compound registered an EC50 of 0.91 µM. Further, the Pro-glucagon gene expression entry in data set [8] is given as “increased pro-glucagon gene expression”.
Consider `CC[C@@H]1[C@@H](O)C2C3CC[C@H]([C@H](C)CCO)[C@@]3(C)CCC2[C@@]2(C)CC[C@@H](O)C[C@@H]12` (stereo partly drawn) [compound 9], for which the “Recruitment of SRC-1 co-activator to FXR” value in data set [6] is listed as “completely unable to recruit SRC-1”.
For the compound `C/C=C1/[C@H](O)C2C3CC[C@H]([C@H](C)CCO)[C@@]3(C)CCC2[C@@]2(C)CC[C@@H](O)C[C@@H]12` (stereo partly drawn) [compound 10], the “Recruitment of SRC-1 co-activator to FXR” value in data set [6] is listed as “completely unable to recruit SRC-1”.
Consider `CCC1C(O)C2C3CCC(C(C)CC(=O)O)C3(C)CCC2C2(C)CCCCC12` (stereo not drawn) [compound 13], for which the EC50 in data set [7] is 4.3 µM; in data set [9], 2.3 µM and 2.32 µM.
As for `CCC1C(O)C2C3CCC(C(C)CCO)C3(C)CCC2C2(C)CCC(O)CC12` (stereo not drawn) [compound 14], the EC50 in data set [7] is 1 µM and 1.02 µM; in data set [9], 5.3 µM.
In the case of `CCC1C(O)C2C3CCC(C(C)CCCCCOS(=O)(=O)O)C3(C)CCC2C2(C)CCC(O)CC12` (stereo not drawn) [compound 19], in [6], the “Recruitment of SRC-1 co-activator to FXR” value was “at least comparable, if not better, to that measured for 3”. This compound also had an EC50 in data set [7] of 0.95 µM. Also, the Pro-glucagon gene expression result in data set [8] was “increased pro-glucagon gene expression”. Moreover, in data set [10], the “BSEP mRNA upregulation” value amounted to 2 fold and the “OSTα mRNA expression” value is on record as “robust induction of OSTα mRNA”. The compound also yielded an EC50 in [9] of 1.7 µM. For the same compound, in [9] (compounds at 10 μM), the “FXR transactivation (luciferase reporter)” value is “the most potent FXR agonist generated in this study”.

Source of the values: PMC4933954, “Navigation in bile acid chemical space: discovery of novel FXR and GPBAR1 ligands” (Scientific Reports, 2016).
